PubChem BioAssay AID330 (DTP/NCI, 2004)
Where “and” joins values, the source holds several entries; their conditions need not be identical. Equal values may be shown once. Inconclusive results and toxic doses are left out.

System: P388 leukemia ip, CD2F1 mice, survival T/C
Assay: NCI In Vivo Anticancer Drug Screen. Data for tumor model P388 Leukemia (intraperitoneal) in CD2F1 (CDF1) mice
Conditions: endpoint: median survival time, higher = longer survival
Summary of the method: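 Mice carrying the transplanted tumor received test compound or vehicle. Survival was recorded in each group, and the value is the treated-group measurement divided by that of the vehicle-treated control group.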

[1] = dose: 50.0 mg/kg/injection, schedule: Q01DX005 (ip), vehicle: Klucel (hydroxypropylcellulose) (HPC)
[2] = dose: 100.0 mg/kg/injection, schedule: Q01DX005 (ip), vehicle: Klucel (hydroxypropylcellulose) (HPC)
[3] = dose: 60.0 mg/kg/injection, schedule: Q01DX005 (ip), vehicle: Klucel (hydroxypropylcellulose) (HPC)
[4] = dose: 120.0 mg/kg/injection, schedule: Q01DX005 (ip), vehicle: Klucel (hydroxypropylcellulose) (HPC)
[5] = dose: 60.0 mg/kg/injection, schedule: Q01DX005 (ip), vehicle: saline with Tween-80

Question: How did the T/C (dose: 12.5 mg/kg/injection, schedule: Q01DX009 (ip), vehicle: saline) turn out when CCCCN(CCCC)CCNc1ccc(C)c2sc3ccccc3c(=O)c12 was run?
Answer: Its T/C is 100 % of control.

Question: And the T/C (dose: 25.0 mg/kg/injection, schedule: Q01DX009 (ip), vehicle: saline)?
Answer: Its T/C is 102 % of control.

Question: And the T/C (dose: 50.0 mg/kg/injection, schedule: Q01DX009 (ip), vehicle: saline)?
Answer: The T/C was 102 % of control.

Question: And the T/C (dose: 100.0 mg/kg/injection, schedule: Q01DX009 (ip), vehicle: saline)?
Answer: The T/C was 100 % of control.

Question: With O=C(/C=C/c1ccc(Cl)cc1)c1ccccc(=O)c1O as the molecule, how does the T/C [1] read?
Answer: Its T/C is 101 % of control.

Question: And the T/C [2]?
Answer: Its T/C is 100 % of control.

Question: What does the source list for O=c1[nH]nc(SCc2ccc(Cl)cc2)c(=O)[nH]1?
Answer: T/C (dose: 25.0 mg/kg/injection, schedule: Q01DX005 (ip), vehicle: Klucel (hydroxypropylcellulose) (HPC)): 92 % of control; T/C [1]: 91 % of control; T/C [2]: 90 % of control; T/C (dose: 200.0 mg/kg/injection, schedule: Q01DX005 (ip), vehicle: Klucel (hydroxypropylcellulose) (HPC)): 87 % of control

Question: CSc1nnc2nc3c4ccccc4c4ccccc4c3nn12 was tested. Which T/C (dose: 50.0 mg/kg/injection, schedule: Q04DX002 (ip), vehicle: suspension in saline) did it give?
Answer: The T/C was 100 % of control.

Question: And the T/C (dose: 100.0 mg/kg/injection, schedule: Q04DX002 (ip), vehicle: suspension in saline)?
Answer: The T/C was 100 % of control.

Question: And the T/C (dose: 200.0 mg/kg/injection, schedule: Q04DX002 (ip), vehicle: suspension in saline)?
Answer: Its T/C is 98 % of control.

Question: For CCOC(=O)C(=CNc1ccccn1)C(=O)OCC, which T/C (dose: 100.0 mg/kg/injection, schedule: Q01DX009 (ip), vehicle: saline with Tween-80) is on record?
Answer: Its T/C is 95 % of control.

Question: And the T/C (dose: 200.0 mg/kg/injection, schedule: Q01DX009 (ip), vehicle: saline with Tween-80)?
Answer: The T/C was 100 % of control.

Question: What about the T/C (dose: 400.0 mg/kg/injection, schedule: Q01DX009 (ip), vehicle: saline with Tween-80) of the same molecule?
Answer: The T/C was 113 % of control.

Question: COc1ccc(CCNCCc2ccc(OC)c(OC)c2)cc1OC was tested. Which T/C (dose: 6.25 mg/kg/injection, schedule: Q01DX009 (ip), vehicle: water) did it give?
Answer: The T/C was 96 % of control.

Question: What about the T/C (dose: 12.5 mg/kg/injection, schedule: Q01DX009 (ip), vehicle: water) of the same molecule?
Answer: Its T/C is 108 % of control.

Question: What about the T/C (dose: 25.0 mg/kg/injection, schedule: Q01DX009 (ip), vehicle: water) of the same molecule?
Answer: The T/C was 100 % of control.

Question: What about the T/C (dose: 50.0 mg/kg/injection, schedule: Q01DX009 (ip), vehicle: water) of the same molecule?
Answer: Its T/C is 100 % of control.

Question: And the T/C (dose: 100.0 mg/kg/injection, schedule: Q01DX009 (ip), vehicle: water)?
Answer: Its T/C is 90 % of control.

Question: What does the source list for CC1=C(S(=O)(=O)c2ccccc2)C(c2ccccc2)N(C)O1 (centres undefined)?
Answer: T/C [3]: 102 % of control; T/C [4]: 103 % of control; T/C (dose: 240.0 mg/kg/injection, schedule: Q01DX005 (ip), vehicle: Klucel (hydroxypropylcellulose) (HPC)): 98 % of control

Question: O=C1C2=C(Nc3ccccc3N2)OC1c1ccc(Cl)cc1 (centres undefined) was tested. Which T/C (dose: 7.5 mg/kg/injection, schedule: Q01DX005 (ip), vehicle: Klucel (hydroxypropylcellulose) (HPC)) did it give?
Answer: The T/C was 103 % of control.

Question: And the T/C (dose: 15.0 mg/kg/injection, schedule: Q01DX005 (ip), vehicle: Klucel (hydroxypropylcellulose) (HPC))?
Answer: Its T/C is 101 % of control.

Question: What about the T/C (dose: 30.0 mg/kg/injection, schedule: Q01DX005 (ip), vehicle: Klucel (hydroxypropylcellulose) (HPC)) of the same molecule?
Answer: The T/C was 101 % of control.

Question: What does the source list for CCC[CH2][Sn]([Cl])([Cl])[CH2]CCC.c1ccc(-c2nnc(-c3ccccn3)nc2-c2ccccc2)cc1?
Answer: T/C [3]: 106 % of control; T/C [4]: 106 % of control

Question: Which T/C [5] does the source give for CC(C)c1nc(C=O)c(C=O)n1Cc1ccccc1 here?
Answer: Its T/C is 97 % of control.

Question: What about the T/C (dose: 120.0 mg/kg/injection, schedule: Q01DX005 (ip), vehicle: saline with Tween-80) of the same molecule?
Answer: Its T/C is 92 % of control.

Question: And the T/C (dose: 240.0 mg/kg/injection, schedule: Q01DX005 (ip), vehicle: saline with Tween-80)?
Answer: Its T/C is 97 % of control.

Question: For CC([NH-])CC(C)[NH-].[Br][Pt+2][Br] (centres undefined), which T/C (dose: 6.25 mg/kg/injection, schedule: Q04DX002 (ip), vehicle: saline with Tween-80) is on record?
Answer: Its T/C is 154 % of control and 171 % of control and 159 % of control.

Question: What about the T/C (dose: 12.5 mg/kg/injection, schedule: Q04DX002 (ip), vehicle: saline with Tween-80) of the same molecule?
Answer: The T/C was 188 % of control and 183 % of control and 186 % of control.

Question: What does the source list for Cc1cc(N=[N+]=[N-])c2cc(F)ccc2n1?
Answer: T/C (dose: 30.0 mg/kg/injection, schedule: Q01DX005 (ip), vehicle: saline with Tween-80): 92 % of control; T/C [5]: 90 % of control and 92 % of control

Question: With COc1cc2c(OC)cc1CCCC(=O)CCCc1cc(OC)c(cc1OC)CCCC(=O)CCC2 as the molecule, how does the T/C (dose: 50.0 mg/kg/injection, schedule: Q01DX005 (ip), vehicle: saline with Tween-80) read?
Answer: Its T/C is 100 % of control.

Question: What about the T/C (dose: 100.0 mg/kg/injection, schedule: Q01DX005 (ip), vehicle: saline with Tween-80) of the same molecule?
Answer: Its T/C is 98 % of control.

Question: And the T/C (dose: 200.0 mg/kg/injection, schedule: Q01DX005 (ip), vehicle: saline with Tween-80)?
Answer: Its T/C is 92 % of control.

Question: Which results are given for C=C1C(=O)O[C@H]2C3OC3(C)CC/C=C(/C(=O)OC)[C@@H](OC(C)=O)[C@H](OC(=O)C3(C)OC3C)[C@H]12 (some centres undefined)?
Answer: T/C (dose: 1.87 mg/kg/injection, schedule: Q01DX009 (ip), vehicle: Klucel (hydroxypropylcellulose) (HPC)): 112 % of control; T/C (dose: 3.75 mg/kg/injection, schedule: Q01DX009 (ip), vehicle: Klucel (hydroxypropylcellulose) (HPC)): 108 % of control; T/C (dose: 7.5 mg/kg/injection, schedule: Q01DX009 (ip), vehicle: Klucel (hydroxypropylcellulose) (HPC)): 107 % of control

Question: Which results are given for COc1cc2nc3occc3c(OC)c2cc1OCC(O)C(C)(C)O (centres undefined)?
Answer: T/C (dose: 12.5 mg/kg/injection, schedule: Q01DX005 (ip), vehicle: distilled water + Tween-80): 91 % of control; T/C (dose: 25.0 mg/kg/injection, schedule: Q01DX005 (ip), vehicle: distilled water + Tween-80): 98 % of control
